Test results taken from US20060275289A1, “Preventive or remedy for inflammatory bowel diseases containing anti-cd81 antibody as the active ingredient” (priority 2003, published 2006).

Key:
[1] = tested on: TNBS-induced colitis mouse; assay: TNBS (2,4,6-trinitrobenzenesulfonic acid)-induced mouse colitis model; format: in vivo; details: antibody 0.1 mg/head i.p. on division day and day 2, SSZ 200 mg/kg orally once daily
Procedure: 0.5 g of egg albumin (OVA: manufactured by Sigma) and 0.5 g of K2CO3 (manufactured by Nacalai Tesque) were dissolved in 25 ml of distilled water for injection (OVA solution). 0.5 g of 2,4,6-trinitrobenzenesulfonic acid (TNBS: manufactured by Nacalai Tesque) was dissolved in 25 ml of 0.1 M K2CO3 (TNBS solution). The OVA solution and the TNBS solution were mixed, and the mixture was stirred overnight at room temperature. The stirred solution was dialyzed against 0.01 M NaHCO3 (manufactured by Nacalai Tesque) through a dialyzer (Spectra/Por Membrane MWCO:10,000, manufactured by Spectrum Medical Industries Inc.). The dialyzate was subjected to protein quantitative determination by BCA Protein Assay Reagent (manufactured by Pierce).
A 1:1 emulsion of complete Freunt adjuvant (CFA: manufactured by Difco Laboratories) and 2 mg/ml of TNP-OVA was subcutaneously injected (sensitized) into the back of a 5-week-old SJL/J mouse (SJL/JorlIcoCrj, male, supplied by Nippon Charles River) at a rate of 0.1 ml/head. […]
The symptom of colitis from the division day to day 5 after the division was observed. The symptom of colitis was scored according to the conditions of stool [normal stool (score:0), loose stool (score:1) and diarrhea (score:2)]. […]
On the final day of the experiment, after euthanasia with a high concentration of CO2, a large bowel was extracted, and the length thereof was measured. […]

[2] = tested on: intracellular IFN-γ; format: cell-based, mouse; details: SEB 1 μg/ml
[3] = tested on: normal mice; details: cells incubated 48 hours with 0.2 μg/ml SEB and 10 μM of compound A (condition C); cited from earlier work
[4] = tested on: IBD-pathogenic cells (mesenteric lymph node cells and spleen cells of TNBS colitis mouse stimulated with Staphylococcal enterotoxin B); format: cell-based
[5] = rate of compound-reacted cells for 1% of the cell population, 10 μM compound A

## O=C(O)c1cc(/N=N/c2ccc(S(=O)(=O)Nc3ccccn3)cc2)ccc1O [SSZ, sulfasalazine]
[1]; large bowel length, day 5 after division, control 87.8 (10.3), Dunnet test * 0.01<p<0.05, ** p<0.01
  Intestinal Length mm(S.D): 103.1 (8.3)** mm
[1]; stool score 0-2, SJL/J mice, control 1.75 (0.46), Steel test * 0.01<p<0.05
  Symptom of colitis (S.D): 0.71 (0.71)*

## Clc1c(C2(c3ccc(N4CCOCC4)cc3)CCC2)nn2c1NCCC2 [compound A, 3-chloro-2-[1-(4-morpholin-4-ylphenyl)cyclobutyl]-4,5,6,7-tetrahydropyrazolo[1,5-a]pyrimidine]
[2]; [5]
  Compound-reacted cells/presence rate, cell surface marker CD3: 1.1
  Compound-reacted cells/presence rate, cell surface marker CD4: 0.8
  Compound-reacted cells/presence rate, cell surface marker CD40: 2.7
  Compound-reacted cells/presence rate, cell surface marker CD40L in CD3: 0.8
  Compound-reacted cells/presence rate, cell surface marker CD81 in CD3: 11.1
  Compound-reacted cells/presence rate, cell surface marker CD49d: 2.4
  Compound-reacted cells/presence rate, cell surface marker TCRV β3: 0
  Compound-reacted cells/presence rate, cell surface marker TCRV γδ: 4.4
[2]; share of intracellular IFN-γ-positive cells reduced by compound A (total reduction = 100), 10 μM, presence rate 3.94%
  Compound-reacted cells (%), cell surface marker CD40L in CD3: 3.3%
[2]; share of intracellular IFN-γ-positive cells reduced by compound A (total reduction = 100), 10 μM, presence rate 4.67%
  Compound-reacted cells (%), cell surface marker CD81 in CD3: 51.7%
[2]; share of intracellular IFN-γ-positive cells reduced by compound A (total reduction = 100), 10 μM, presence rate 5.39%
  Compound-reacted cells (%), cell surface marker TCRV γδ: 23.8%
[2]; share of intracellular IFN-γ-positive cells reduced by compound A (total reduction = 100), 10 μM, presence rate 9.14%
  Compound-reacted cells (%), cell surface marker CD40: 24.3%
[2]; share of intracellular IFN-γ-positive cells reduced by compound A (total reduction = 100), 10 μM, presence rate 16.4%
  Compound-reacted cells (%), cell surface marker CD49d: 39.6%
[2]; share of intracellular IFN-γ-positive cells reduced by compound A (total reduction = 100), 10 μM, presence rate 45.7%
  Compound-reacted cells (%), cell surface marker CD4: 55.6%
[2]; share of intracellular IFN-γ-positive cells reduced by compound A (total reduction = 100), 10 μM, presence rate 92.1%
  Compound-reacted cells (%), cell surface marker CD3: 103.4%
[2]; share of intracellular IFN-γ-positive cells reduced by compound A (total reduction = 100), 10 μM, presence rate 100%
  Compound-reacted cells (%), cell surface marker TCRV β3: 0%
[3]
  induction of the symptom of colitis by cells transferred into normal mice: do not induce the symptom of colitis
[4]
  Gene chip expression signal, CD81 (101495_at): 195.1
  Gene chip expression signal, CDw40 (92962_at): 63.9
  Gene chip expression signal, DAP12 (100397_at): 1144.2
  Gene chip expression signal, IL-9 (96574_at): 96.4
  Gene chip expression signal, IL-10Rβ (99491_at): 1000.9
  Gene chip expression signal, IL-17 (99349_at): 172.4
  Gene chip expression signal, Integrin β1 (100124_r_at): 149.4
  Gene chip expression signal, Lymphotoxin α (102630_s_at): 220.6
  Gene chip expression signal, Paired-Ig-like receptor Al (100328_s_at): 791.2
  Gene chip expression signal, TCRV γ4 (102745_at): 33.1
  IFN-γ gene expression (DNA chip analysis): decreased
